Data on seven molecules can be found in PubChem BioAssay (NCI).

Among the test systems are SK-MEL-5 melanoma; SF-268 CNS; HCC-2998 colon; RXF 393 renal; SNB-75 CNS; RPMI-8226 leukemia; IGROV1 ovarian; A498 renal; K-562 leukemia; SK-MEL-28 melanoma.
What all share (assay): inhibition of tumour cell growth, NCI panel, 48 h

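Cells were grown in 96-well plates and exposed to each compound for 48 hours at five concentrations; endpoints were interpolated linearly between bracketing concentrations, or set to the highest concentration if not reached. Abbreviation: GI50, concentration required for 50% inhibition of growth. TGI denotes the concentration required for complete inhibition of growth.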

For `Cc1cc(I)cc(CN(C)CCCCN2CCCCC2)c1O`, the GI50 in the assay on SK-MEL-5 melanoma was 3.33 µM; in the assay with SF-268 CNS, 12.5 µM; in the assay on HCC-2998 colon, 16 µM; in the assay on RXF 393 renal it was 12.9 µM; with SNB-75 CNS, 15 µM; in the assay with RPMI-8226 leukemia it was 8.68 µM. Further, the GI50 in the assay on IGROV1 ovarian is 17.7 µM; in the assay with A498 renal, 11.4 µM; in the assay on K-562 leukemia, 4.03 µM; in the assay with SK-MEL-28 melanoma it was 4.21 µM. Moreover, the TGI with SK-MEL-5 melanoma is 10.7 µM; in the assay on SF-268 CNS, 27.3 µM; in the assay with HCC-2998 colon it was 30.1 µM; in the assay on RXF 393 renal, 32.6 µM; with SNB-75 CNS it was 32.8 µM; with RPMI-8226 leukemia, 25.5 µM. In addition, the TGI stood at 41 µM in the assay on IGROV1 ovarian, 25.4 µM with A498 renal, 17.1 µM in the assay with K-562 leukemia and 15.8 µM in the assay on SK-MEL-28 melanoma.

Take `Nc1ccccc1SC(C[N+](=O)[O-])c1ccc2c(c1)OCO2` (stereo not given): the TGI amounted to 15.3 µM in the assay on SK-MEL-5 melanoma; 20.7 µM with SF-268 CNS; 3.17 µM in the assay on HCC-2998 colon; 3.33 µM in the assay on RXF 393 renal; 7.09 µM with SNB-75 CNS; 4.42 µM in the assay with RPMI-8226 leukemia. The TGI in the assay with IGROV1 ovarian is 3.2 µM; with A498 renal, 20.6 µM; in the assay with K-562 leukemia, 7 µM; in the assay with SK-MEL-28 melanoma, 11.3 µM.

On to `Cc1nc2ccccc2c(N)c1-c1cc(C)c2c(C)nc3ccccc3c2n1`, for which the GI50 in the assay on SK-MEL-5 melanoma was 18.2 µM; in the assay on SF-268 CNS, 0.628 µM; in the assay on HCC-2998 colon it was 0.627 µM; with RXF 393 renal, 0.182 µM; in the assay with SNB-75 CNS, 1.52 µM; in the assay with RPMI-8226 leukemia, 0.173 µM. For the same molecule, the GI50 with IGROV1 ovarian was 0.294 µM; with A498 renal, 1.73 µM; in the assay on K-562 leukemia, 0.256 µM; in the assay with SK-MEL-28 melanoma, 1.61 µM. Besides, the TGI is above 37.4 µM in the assay on SK-MEL-5 melanoma; 2.08 µM in the assay with SF-268 CNS; 1.95 µM with HCC-2998 colon; 0.737 µM with RXF 393 renal; 3.16 µM with SNB-75 CNS; 0.52 µM with RPMI-8226 leukemia. The TGI is 0.86 µM with IGROV1 ovarian, 4.11 µM with A498 renal, above 100 µM in the assay with K-562 leukemia and 2.97 µM in the assay with SK-MEL-28 melanoma.

Consider `O=C(/C=C/C12c3ccccc3C(c3ccccc31)C1C(=O)NC(=O)C12)c1ccncc1` (stereo not given), for which the GI50 with SK-MEL-5 melanoma is 1.72 µM; in the assay with SF-268 CNS, 2.46 µM; with HCC-2998 colon it was 1.87 µM; in the assay on RXF 393 renal, 1.74 µM; in the assay on SNB-75 CNS, 2.19 µM; in the assay on RPMI-8226 leukemia it was 2.11 µM. Also, the GI50 was 2.39 µM in the assay with IGROV1 ovarian, 14.1 µM in the assay with A498 renal, 1.88 µM in the assay with K-562 leukemia and 2.1 µM with SK-MEL-28 melanoma. In addition, the TGI stood at 3.25 µM in the assay on SK-MEL-5 melanoma; 8.48 µM in the assay on SF-268 CNS; 3.68 µM in the assay with HCC-2998 colon; 3.27 µM with RXF 393 renal; 10.9 µM in the assay with SNB-75 CNS; 5.48 µM with RPMI-8226 leukemia. Moreover, the TGI with IGROV1 ovarian was 8 µM; in the assay with A498 renal, 28.3 µM; in the assay on K-562 leukemia, above 100 µM; in the assay on SK-MEL-28 melanoma, 4.57 µM.

For the molecule `COc1ccc(C(=O)Cn2c(C(=O)c3ccccc3)nc(-c3ccc(OC)cc3)c2-c2ccc(OC)cc2)cc1`, the GI50 with SK-MEL-5 melanoma is above 100 µM; with SF-268 CNS, 86.4 µM; in the assay on HCC-2998 colon it was above 100 µM; in the assay with RXF 393 renal, 19.9 µM; in the assay with SNB-75 CNS, 7.71 µM; in the assay with RPMI-8226 leukemia, above 100 µM. Besides, the GI50 in the assay on IGROV1 ovarian was 71.2 µM; in the assay on A498 renal it was above 100 µM; with K-562 leukemia it was above 100 µM; in the assay on SK-MEL-28 melanoma, above 100 µM. Besides, the TGI is above 100 µM in the assay on SK-MEL-5 melanoma; above 100 µM in the assay on SF-268 CNS; above 100 µM with HCC-2998 colon; 49.2 µM in the assay on RXF 393 renal; 38.4 µM in the assay on SNB-75 CNS; above 100 µM with RPMI-8226 leukemia. Moreover, the TGI in the assay with IGROV1 ovarian, in the assay with A498 renal, with K-562 leukemia and in the assay on SK-MEL-28 melanoma was above 100 µM throughout.

As to `C=C1C(=O)C23CC1CCC2C12CO[C@@H]4OCC(C)(CC[C@@H]1OC3=O)C42` (stereo not given in full), the TGI was found to be 28.3 µM in the assay on SK-MEL-5 melanoma; 12.7 µM with SF-268 CNS; 30.9 µM in the assay with HCC-2998 colon; 6.72 µM with RXF 393 renal; 30.8 µM with SNB-75 CNS; 19 µM in the assay on RPMI-8226 leukemia. The TGI is 14.1 µM with IGROV1 ovarian, 34.8 µM in the assay with A498 renal, above 100 µM with K-562 leukemia and 4.41 µM in the assay with SK-MEL-28 melanoma.

In the case of `O=C1CC(c2ccc3c(c2)OCO3)Nc2ccccc21` (stereo not given), the GI50 with SK-MEL-5 melanoma is 12.6 µM; in the assay with SF-268 CNS it was 10.4 µM; in the assay with HCC-2998 colon, 15.8 µM; in the assay on RXF 393 renal, 11.7 µM; in the assay on SNB-75 CNS, 4.04 µM; with RPMI-8226 leukemia, 3.05 µM. Further, the GI50 with IGROV1 ovarian is 10.9 µM; with A498 renal it was 13.4 µM; with K-562 leukemia it was 3.33 µM; in the assay with SK-MEL-28 melanoma, 15.1 µM. Further, the TGI was 25.8 µM in the assay on SK-MEL-5 melanoma; 35.6 µM in the assay with SF-268 CNS; 30.4 µM with HCC-2998 colon; 28.3 µM in the assay on RXF 393 renal; 18.5 µM in the assay with SNB-75 CNS; 13.3 µM in the assay on RPMI-8226 leukemia. The TGI was 47.8 µM with IGROV1 ovarian, 28.7 µM in the assay on A498 renal, above 100 µM in the assay with K-562 leukemia and 32.7 µM in the assay with SK-MEL-28 melanoma.
